Results: patent publication US9862690B2, “Treatment of pulmonary and other conditions” (University of Pittsburgh—of the Commonwealth System of …, priority 2013, dated 2018)

Legend:
[1] = system: bronchial epithelial cells, THP cells, and alveolar macrophages; assay: Cigarette smoke extract exposure of cultured cells; format: cell-based, humans and mice; details: pretreated 1 to 5 μM, then 10% cigarette smoke extract
Experimental: For further in vitro studies, bronchial epithelial cells, THP cells (obtained from American Type Culture Collection), and alveolar macrophages (isolated from bronchial lavage fluid of humans and mice) were cultured and exposed to 10% cigarette smoke extract (CSE) prepared by smoking two cigarettes into RPMI medium according to the Federal Trade Commission (FTC) protocol. In some experiments cells were pretreated with 1 to 5 μM PB141 before the cigarette smoke extract treatment. Pretreatment with PB141 decreased epithelial cell permeability, inflammatory chemokine and cytokine production, and ROS generation.

[2] = Nebulization of PB141: aerosol droplet size by Andersen cascade impactor; format: physicochemical; details: dissolved in water or PBS; micropump nebulizer, 10 L of air/min
Experimental: PB141 was dissolved in water or different concentrations of PBS and the solutions were aerosolized using a micropump nebulizer (Buxco Research Systems, Wilmington, N.C.) flowing at 10 L of air/min. Aerosol droplet size was measured with an Andersen cascade impactor. (A) Distribution of PB141 aerosol droplet sizes. (B) The concentration of PB141 during a 30 min nebulization period was measured by collecting samples during nebulization and analyzing by spectrophotometer in two independent experiments.
PB141 was dissolved in water or different concentrations of PBS and aerosols were generated using a micropump nebulizer (Buxco Research Systems, Wilmington, N.C.) flowing at 10 L of air/min. Aerosol droplet size was measured with an Andersen cascade impactor. The concentration of PB141 during a 30-min nebulization period was measured by collecting samples during nebulization and analyzing them by spectrophotometer in […]. […] Nebulization was optimal for a solution of PB141 in 2% saline, although a formulation in pure water was also effective.

p65 subunit of NF-κB [3] = target: T1, p65 subunit of NF-κB (Mus musculus, UniProt Q04207); assay: LPS-induced lung NF-κB p65 DNA-binding activity after nebulized delivery; format: in vivo, mice; details: i.t. LPS; different concentrations nebulized 30 min later for 30 min
T1 construct: Following sacrifice, nuclear proteins were isolated from lungs; from tissue; host or cells: mouse lung (nuclear proteins)
Experimental: PB141 was delivered to mice by nebulization at doses of 25 or 250 mg/kg for up to 30 days. (A) Lungs were excised, sectioned, and examined histologically for evidence of inflammation or injury. (B) Potential kidney and liver injury were assessed by serum levels of creatinine, AST, and ALT. […] Acute lung injury was induced in mice by intratracheal administration of LPS. Thirty min later PBS or varying concentrations of PB141 were delivered into cage air by nebulization. Following sacrifice, nuclear proteins were isolated from lungs and used to determine DNA-binding activity of the p65 subunit of the pro-inflammatory transcription factor NF-κB.
In other experiments, acute lung injury was induced by intratracheal (i.t.) injection of endotoxin [lipopolysaccharide (LPS)] prepared from Escherichia coli O111:B6 (Sigma-Aldrich; St. Louis, Mo.). Thirty minutes later different concentrations of PB141 in isotonic saline were nebulized and delivered into cage air for 30 min using a micropump nebulizer (Buxco Research Systems, Wilmington, N.C.) fitted at the chamber inlet and flowing at 10 L of air/min. PBS was similarly delivered as a control. Nuclear proteins were prepared from lung samples and their concentrations were determined and used to quantify DNA-binding activity of the p65 subunit of the pro-inflammatory transcription factor NF-κB.

p65 subunit of NF-κB [4] = target: T2, p65 subunit of NF-κB (Homo sapiens, UniProt Q04206); assay: LPS-induced NF-κB p65 DNA-binding activity in BEAS-2B cells; format: cell-based; details: 1 h pre-treatment, then LPS 6 h
T2 construct: endogenous in cells; host or cells: BEAS-2B
Experimental: BEAS-2B cells were treated with varying concentrations of PB141 for 24 h, after which (A) Nrf2 activity was measured or (C) nuclear Nrf2 concentration was determined by Western blotting. (B) In other experiments cells were pretreated with varying concentrations of PB141 for 1 h, then with LPS (500 ng/ml) for 6 h. Cells were then isolated and activity of NF-κB was measured.
BEAS-2B cells were cultured in Dulbecco's modified Eagle's medium (DMEM) containing 10% heat-inactivated fetal bovine serum, penicillin, and streptomycin (100 IU/ml). Monolayer cultures were treated with different concentrations of PB141 for 24 h. Cells were then isolated and the DNA-binding activity of the antioxidant transcription factor Nrf2 was determined. The nuclear concentration of Nrf2 was also determined by Western blotting. […] In some experiments monolayer cultures were deprived of serum for 24 h, pre-treated with different concentrations of PB141 for 1 h, then exposed to LPS for 6 h. Nuclear proteins were prepared and were used to quantify DNA-binding activity of the p65 subunit of NF-κB.

BEAS-2B cells = format: cell-based
Experimental: To evaluate cell viability, apoptosis, and cytotoxicity, the Apo Tox-Glo Triplex assay was used according to the manufacturer's instructions (Promega, Madison, Wis.). Briefly, the BEAS-2B cells were plated at 2×10^4 cells/well in 100 μl medium in an opaque walled, clear-bottomed, 96-well plate. After 24 hr culture, they were treated for a further indicated time with different concentrations of PB141 or PB157. At the end of the culture period, 20 μl viability/cytotoxicity reagent was added to each well, mixed by orbital shaking (300 r.p.m. for 30 s) and incubated for 30 min at 37° C. Fluorescence was then measured with excitation at 400 nm and emission at 505 nm to assess cell viability, and 485 nm excitation and 520 nm emission to assess cytotoxicity; both were quantified as relative fluorescence units (RFU). Then, 100 μl Caspase-Glo 3/7 reagent was added to each well, mixed by orbital shaking (300 r.p.m. for 30 s) and incubated for 30 min at room temperature. Luminescence was measured to assess caspase activation as a marker of apoptosis and quantified as relative luminescence units. Results for PB141 and PB157 were similar.

[5] = FRAP assay (ferric reduction/anti-oxidant power); format: biochemical; details: 10 μmol compound, 5 min, 593 nm; Troxol reference
Experimental: The antioxidant activity of PB141 was determined by ferric reduction/anti-oxidant power (FRAP) assay in which the compound is reacted with ferric tripyridyltriazine complex. Data are representative of one of two independent experiments; n=3; *** P<0.001 versus Troxol.
The antioxidant activity of PB141 or PB157 was determined by ferric reduction/anti-oxidant power (FRAP) assay in which the compounds are reacted with ferric tripyridyltriazine complex. The ferric complex was prepared at room temperature by reaction of ferric chloride (16.7 mmol) and 2,4,6-trispyridyl-s-triazine (8.33 mmol) in pH 3.6 acetate buffer (0.25 M). The FRAP reagent was used immediately after preparation. PB141 or PB157 (10 μmol) was added to the FRAP reagent (1 ml) and mixed by vortexing. The reaction was allowed to stabilize for 5 min and the absorbance was measured. The antioxidant activities of these compounds were determined by the ability to reduce the ferric complex to a […] ferrous complex, monitored at 593 nm. Troxol (10 μmol) was used as reference standard.

T2 sequence (Q04206 whole entry): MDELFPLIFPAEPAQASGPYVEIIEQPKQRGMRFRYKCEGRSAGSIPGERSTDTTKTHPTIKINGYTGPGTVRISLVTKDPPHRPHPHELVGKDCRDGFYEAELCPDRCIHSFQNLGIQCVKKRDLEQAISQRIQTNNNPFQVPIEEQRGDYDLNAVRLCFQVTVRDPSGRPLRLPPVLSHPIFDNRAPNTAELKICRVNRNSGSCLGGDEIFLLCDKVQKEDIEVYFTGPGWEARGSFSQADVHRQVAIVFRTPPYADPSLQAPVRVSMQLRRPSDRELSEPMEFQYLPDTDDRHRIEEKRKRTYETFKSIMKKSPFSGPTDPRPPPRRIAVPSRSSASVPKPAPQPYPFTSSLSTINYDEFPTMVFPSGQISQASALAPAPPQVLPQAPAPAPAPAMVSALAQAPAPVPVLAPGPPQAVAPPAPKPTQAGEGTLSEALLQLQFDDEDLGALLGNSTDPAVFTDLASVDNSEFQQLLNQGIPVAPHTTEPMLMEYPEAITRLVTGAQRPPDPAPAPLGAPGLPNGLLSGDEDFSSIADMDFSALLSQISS
T1 sequence (Q04207 whole entry): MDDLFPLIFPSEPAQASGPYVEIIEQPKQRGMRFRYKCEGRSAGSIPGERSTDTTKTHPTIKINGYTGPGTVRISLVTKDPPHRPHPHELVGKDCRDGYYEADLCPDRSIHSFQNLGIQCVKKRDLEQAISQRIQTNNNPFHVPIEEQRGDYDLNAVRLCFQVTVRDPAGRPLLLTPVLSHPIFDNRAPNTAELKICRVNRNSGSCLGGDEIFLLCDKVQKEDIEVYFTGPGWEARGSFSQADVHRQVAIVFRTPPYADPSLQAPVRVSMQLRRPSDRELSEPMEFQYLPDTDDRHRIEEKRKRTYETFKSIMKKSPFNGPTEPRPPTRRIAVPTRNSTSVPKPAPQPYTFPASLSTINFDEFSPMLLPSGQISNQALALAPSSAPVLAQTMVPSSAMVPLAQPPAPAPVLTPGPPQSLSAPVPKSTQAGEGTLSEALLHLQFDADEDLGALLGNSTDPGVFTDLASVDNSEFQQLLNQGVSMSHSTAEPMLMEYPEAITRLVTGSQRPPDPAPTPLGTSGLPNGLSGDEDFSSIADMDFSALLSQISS

Compound: CC(=O)N[C@@H](CSC(CC(=O)CC(SC[C@H](NC(C)=O)C(=O)O)c1cnccn1)c1cnccn1)C(=O)O (stereo partly shown) [PB141]
- Inflammatory chemokine and cytokine production [1]: decreased
- Phagocytic ability of mouse and human alveolar macrophages [1]: improved
- ROS generation [1]: decreased
- Aerosol droplet size [2]: 1-2 μm
- LPS-induced upregulation of NF-κB in lung (p65 subunit of NF-κB [3]): inhibited the LPS-induced upregulation of NF-κB in a concentration-dependent manner
- Inhibition of NF-κB activity at 1 μM (p65 subunit of NF-κB [4]; 1 μM): almost complete inhibition
- NF-κB activity (p65 DNA-binding) (p65 subunit of NF-κB [4]; different concentrations): inhibited NF-κB activity in a concentration-dependent manner
- Cytotoxicity (BEAS-2B cells): without exhibiting cytotoxicity
- Apoptosis (caspase 3/7 activation) (BEAS-2B cells; different concentrations, data not shown): induced apoptosis
- Antioxidant activity (reduction of ferric complex) [5]: highly significant and approximately equal
